In US11970496B1, “Pyrrolo[3,2-c]quinoline compounds as CK2 inhibitors” (KING FAISAL UNIVERSITY, priority 2023, dated 2024) one finds IC50 data, which are given here for one molecule.

The test system of one experiment is MIAPaCa-2 (pancreas). Description: In vitro cytotoxic activity assay (MTT), MIAPaCa-2. It is filed as cell-based. To be noted: Homo sapiens, MIA PaCa-2; MIAPaCa-2 cells, exposed for 96 hours; read-out: IC50, 50% inhibition of cell proliferation, MIAPaCa-2 (pancreas). The procedure:
(§1) Compounds 1-12 were screened for their in vitro cytotoxic activity utilizing a 3-(4,5-dimethyl-thiazol-2-yl)-2,5-diphenyltetrazolium bromide (MTT) assay against selected cancer human cell lines consisting of PC3 (prostate), HCT116 (colon), A375 (melanoma), H1299 (lung), MIAPaCa-2 (pancreas), HL60 (leukemia), MCF7 (breast), MDA-MB-231 (breast) (T. Mosmann, J. Immunol. Meth., 1983, 65, 55-63). The cells were cultured at 37° C. in RMPI1640 medium supplemented with 10% fetal bovine serum, 50 IU/mL penicillin, and 50 μg/mL streptomycin in a 5% CO2 incubator. All cells were sub-cultured 3 times/week by trypsinisation. Viable cells were seeded and allowed to adhere for 12 h before a test drug was added in 96-well plates at an initial density of 1.0×10^5 cells/mL. Tumour cell lines were separately exposed to various concentrations of the tested compounds followed by incubation at a temperature of 37° C. during 96 h inside a medium of fresh RMPI 1640. Cells were subsequently incubated at 37° C. using MTT at 0.5 mg/mL during 4 h. After removal of supernatant, formazan crystals were dissolved in isopropanol and the optical density was measured at 570 nm. CX-4945 was used as a positive control.

For a further experiment, the system named is HL60 (leukemia). Put plainly: In vitro cytotoxic activity assay (MTT), HL60. It is filed as cell-based. The conditions noted are these: Homo sapiens, HL-60; HL60 cells, exposed for 96 hours; read-out: IC50, 50% inhibition of cell proliferation, HL60 (leukemia). The procedure:
as §1

For another experiment, the system named is H1299 (lung). Put plainly: In vitro cytotoxic activity assay (MTT), H1299. Type of experiment: cell-based. The conditions noted are these: Homo sapiens, NCI-H1299; H1299 cells, exposed for 96 hours; read-out: IC50, 50% inhibition of cell proliferation, H1299 (lung). The procedure: as §1
In another experiment the test system is HCT116 (colon). Put plainly: In vitro cytotoxic activity assay (MTT), HCT116. To be noted: Homo sapiens, HCT-116; HCT116 cells, exposed for 96 hours; read-out: IC50, 50% inhibition of cell proliferation, HCT116 (colon). It is filed as cell-based. The protocol: as §1
A further experiment deals with MDA-MB-231 (breast). Put plainly: In vitro cytotoxic activity assay (MTT), MDA-MB-231. It is filed as cell-based. To be noted: Homo sapiens; MDA-MB-231 cells, exposed for 96 hours; read-out: IC50, 50% inhibition of cell proliferation, MDA-MB-231 (breast). The procedure: as §1
A further experiment relates to PC3 (prostate). Description: In vitro cytotoxic activity assay (MTT), PC3. Type of experiment: cell-based. To be noted: Homo sapiens, PC-3; PC3 cells, exposed for 96 hours; read-out: IC50, 50% inhibition of cell proliferation, PC3 (prostate). The protocol:
as §1

A further experiment concerns A375 (melanoma). Put plainly: In vitro cytotoxic activity assay (MTT), A375. It is filed as cell-based. To be noted: Homo sapiens, A-375; A375 cells, exposed for 96 hours; read-out: IC50, 50% inhibition of cell proliferation, A375 (melanoma). The procedure:
as §1

The next experiment relates to MCF7 (breast). Put plainly: In vitro cytotoxic activity assay (MTT), MCF7. Type of experiment: cell-based. The conditions noted are these: Homo sapiens; MCF7 cells, exposed for 96 hours; read-out: IC50, 50% inhibition of cell proliferation, MCF7 (breast). The protocol: as §1
The target of experiment [1] is T1, recombinant human CK2 (RRββ-holoenzyme) (Homo sapiens, UniProt P68400).
T1 construct: purchased Millipore
T1 sequence (P68400 whole entry): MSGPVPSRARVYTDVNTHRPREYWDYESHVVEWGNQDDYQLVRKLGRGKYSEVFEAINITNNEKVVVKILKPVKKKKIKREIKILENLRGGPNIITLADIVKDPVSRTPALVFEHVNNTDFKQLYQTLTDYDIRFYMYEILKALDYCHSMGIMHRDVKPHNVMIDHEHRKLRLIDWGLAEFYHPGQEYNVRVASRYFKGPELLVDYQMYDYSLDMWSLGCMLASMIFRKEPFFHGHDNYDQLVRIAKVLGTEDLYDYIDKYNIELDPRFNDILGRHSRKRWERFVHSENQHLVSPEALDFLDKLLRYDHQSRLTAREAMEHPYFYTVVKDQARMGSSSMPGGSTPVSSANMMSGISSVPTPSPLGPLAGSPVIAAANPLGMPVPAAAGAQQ
T1 sequence (P67870 whole entry partner): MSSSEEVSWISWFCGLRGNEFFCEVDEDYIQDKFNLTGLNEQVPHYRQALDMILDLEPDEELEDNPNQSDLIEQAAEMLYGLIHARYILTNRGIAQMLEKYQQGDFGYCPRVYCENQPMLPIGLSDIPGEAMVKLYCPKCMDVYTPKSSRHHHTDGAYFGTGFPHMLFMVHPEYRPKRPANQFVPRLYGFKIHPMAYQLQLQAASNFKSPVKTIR
Put plainly: CK2 Kinase Assay (33P-ATP, substrate peptide RRRDDDSDDD). It is filed as biochemical. The conditions noted are these: final ATP concentration 15 μM, 10 min at 30° C.; read-out: protein kinase CK2 IC50. The protocol:
CK2 Kinase Assay was conducted using the protocol as described in Pierre F. et al; J. Med. Chem. 2011, 54, 635-654. The tested compounds in aqueous solution were added at a volume of 10 μL to a reaction mixture comprising 10 μL of assay dilution buffer (ADB; 20 mM MOPS, pH 7.2, 25 mM (3-glycerol phosphate, 5 mM EGTA, 1 mM sodium orthovanadate, and 1 mM dithiothreitol), 10 μL of substrate peptide (RRRDDDSDDD, dissolved in ADB at a concentration of 1 mM), 10 μL of recombinant human CK2 (RRββ-holoenzyme, 25 ng dissolved in ADB; Millipore). Reactions were initiated by the addition of 10 μL of ATP solution (90% 75 mMMgCl2, 75 μM ATP (final ATP concentration: 15 μM) dissolved in ADB; 10% [γ-33P] ATP (stock 1 mCi/100 μL; 3000 Ci/mmol (Perkin-Elmer) and maintained for 10 min at 30° C. The reactions were quenched with 100 μL of 0.75% phosphoric acid and then transferred to and filtered through a phosphor cellulose filter plate (Millipore). After washing each well five times with 0.75% phosphoric acid, the plate was dried under vacuum for 5 min and, following the addition of 15 μL of scintillation fluid to each well, the residual radioactivity was measured using a Wallac […]. The IC50 values were derived from eight concentrations of test inhibitors.

On to `O=C(O)c1ccc2c(c1)nc(Nc1cccc(Cl)c1)c1cc(C(=O)O)[nH]c12` [Compound 1, 4-((3-chlorophenyl)amino)-1H-pyrrolo[3,2-c]quinoline-2,7-dicarboxylic acid], for which the IC50 was determined as 1300 nM in the experiment with MIAPaCa-2 (pancreas); 2900 nM in the experiment with HL60 (leukemia); 1600 nM in the experiment with H1299 (lung); 1900 nM in the experiment with HCT116 (colon); 3500 nM in the experiment with MDA-MB-231 (breast); 1800 nM with PC3 (prostate). Moreover, the IC50 in the experiment with A375 (melanoma) was 2200 nM; in the experiment on MCF7 (breast) it was 4400 nM; in experiment [1] it was 37 nM.
